How the values were obtained:
[1] = tested on: rdMPXV^Δ96,158; assay: microbe, parasite or virus in culture; assay type: cell-based; details: Monkeypox virus, 30 h
[2] = tested on: rdMPXV^Δ96,158; assay type: cell-based
[3] = tested on: VACV; details: cited from earlier work
[4] = tested on: VACV; details: in vivo; cited from earlier work

Compound: Nc1ccn(C[C@@H](CO)OCP(=O)(O)O)c(=O)n1 [Cidofovir]
- EC50 [1]: 10.5 µM
- Gaussia luciferase activity [2]: reduced Gaussia luciferase activity
- mean fluorescence intensity of mGreen-positive cells [2]: showed decreased intensity

Compound: Cc1cc(C(=O)NNC(=O)c2ccncc2)ccc1Cl [IMCBH, N1-isonicotinoly-N2-3-methyl-4-chlorobenzoylhydrazine]
- cytopathic effect (CPE) inhibition [3]: complete cytopathic effect (CPE) inhibition
- protection from VACV infection [4]: failed to protect
